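Growth conditions: 96-well plates. Treatment: test compound, 48 hours, 5 concentrations. Analysis: linear interpolation between bracketing concentrations; unreached endpoints set to highest concentration. TGI: total growth inhibition.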
Columns and labels:
Assay in all cases: NCI anticancer screen, dose series, 48 h
786-0 renal = system: 786-0 renal
CCRF-CEM leukemia = system: CCRF-CEM leukemia
COLO 205 colon = system: COLO 205 colon
HCC-2998 colon = system: HCC-2998 colon
HCT-15 colon = system: HCT-15 colon
HL-60(TB) leukemia = system: HL-60(TB) leukemia
HOP-62 NSCLC = system: HOP-62 NSCLC
HS 578T breast = system: HS 578T breast
MALME-3M melanoma = system: MALME-3M melanoma
MCF7 breast = system: MCF7 breast
NCI-H226 lung = system: NCI-H226 lung
NCI-H522 lung = system: NCI-H522 lung
OVCAR-5 ovarian = system: OVCAR-5 ovarian
OVCAR-8 ovarian = system: OVCAR-8 ovarian
SF-295 CNS = system: SF-295 CNS
SF-539 CNS = system: SF-539 CNS
SNB-19 CNS = system: SNB-19 CNS
SNB-75 CNS = system: SNB-75 CNS
SR leukemia = system: SR leukemia
UACC-62 melanoma = system: UACC-62 melanoma

Structure (SMILES) | TGI (786-0 renal) [µM] | TGI (CCRF-CEM leukemia) [µM] | TGI (COLO 205 colon) [µM] | TGI (HCC-2998 colon) [µM] | TGI (HCT-15 colon) [µM] | TGI (HL-60(TB) leukemia) [µM] | TGI (HOP-62 NSCLC) [µM] | TGI (HS 578T breast) [µM] | TGI (MALME-3M melanoma) [µM] | TGI (MCF7 breast) [µM] | TGI (NCI-H226 lung) [µM] | TGI (NCI-H522 lung) [µM] | TGI (OVCAR-5 ovarian) [µM] | TGI (OVCAR-8 ovarian) [µM] | TGI (SF-295 CNS) [µM] | TGI (SF-539 CNS) [µM] | TGI (SNB-19 CNS) [µM] | TGI (SNB-75 CNS) [µM] | TGI (SR leukemia) [µM] | TGI (UACC-62 melanoma) [µM]
CCN(CC)CCCNc1[nH]ncc2c(C)c3nc4ccc(OC)cc4c3cc12 | 2.28 | 2 | 2.89 | 2.33 | 36.3 | 2.9 | 4.16 | 4.25 | 2.36 | 1.28 | 1.7 | 0.639 | 6.66 | 2.01 | 6.48 | 1.16 | 1.21 | 2.1 | 1.76 | 2.74
CC(C)(C)C1=CC(=C2C=Cc3ccccc3O2)C=C(C(C)(C)C)C1=O | 9.55 | 6.12 | 4.71 | 2.99 | 19.3 | 5.92 | 20.9 | > 47.6 | 14.5 | 13.1 | 25.6 | 17.8 | 15.3 | > 51.8 | 18.9 | 20 | > 50.7 | 40 | 5.35 | 8.04
COc1c2c(cc3c1C1(O)Cc4ccc5c(c4C[N+]1(C)CC3)OCO5)OCO2 (stereo not given) | > 100 | > 100 | > 100 | > 100 | > 100 | > 100 | > 100 | > 100 | > 100 | > 100 | > 100 | > 100 | > 100 | > 100 | > 100 | > 100 | > 100 | > 100 | > 100 | > 100
Nc1c2c(nc3ccccc13)-c1ccccc1NCCC2 | 32.4 | 81.3 | 35.2 | 27 | > 100 | 47.5 | 54.2 | > 100 | 32.9 | > 100 | > 100 | 82.6 | > 100 | > 100 | 50.8 | 43.9 | > 100 | > 100 | > 100 | 41.2
Cc1ccc(S(=O)(=O)N/N=C2/CC3CCC4CC2CC34)cc1 (stereo not given) | > 100 | > 100 | > 100 | > 100 | > 100 | > 100 | > 100 | > 100 | > 100 | > 100 | > 100 | > 100 | > 100 | > 100 | > 100 | > 100 | > 100 | > 100 | > 100 | > 100
CC(C)/C(=N\[N+](C)(C)C)c1ccccc1 | > 100 | > 100 | > 100 | > 100 | > 100 | > 100 | > 100 | > 100 | > 100 | > 100 | > 100 | > 100 | > 100 | > 100 | > 100 | > 100 | > 100 | > 100 | > 100 | > 100
CSc1c(CC(=O)Nc2ccc(Cl)cc2)n(Cc2ccccc2)c2ccccc12 | 30.3 | > 100 | > 100 | 88 | > 100 | > 100 | > 100 | 69.4 | > 100 | > 100 | 71.8 | > 100 | > 100 | 41 | > 100 | 9.6 | > 100 | 33.1 | > 100 | > 100
C=CCc1cc(C(Cc2ccccc2)NC(C)C)cc(OCc2ccccc2)c1OCc1ccccc1 (stereo not given) | 30.7 | 33.5 | 31.3 | 26.7 | 30.7 | 34.7 | 30.3 | 37.1 | 28.9 | 32 | 36.2 | 28.8 | 33.2 | 31.5 | 31.6 | 29 | 28.8 | 26.2 | 28.5 | 28.4
CC1CN=C(c2cccc(-c3nc(-c4cccc(C5=NCC(C)N5)c4)nc(N(C)C)n3)c2)N1 (stereo not given) | 5.67 | 3.45 | 2.5 | 2.39 | 24.7 | 4.81 | 5.9 | 17.1 | 14.8 | 3.33 | 6.47 | 2.51 | 10.2 | 11.6 | 14.3 | 1.66 | 5.27 | 5.13 | 1.96 | 3.83
COc1cc(NC=C2C(=O)OC(C)(C)OC2=O)c(OC)c(C)c1OC | > 100 | > 100 | > 100 | > 100 | > 100 | > 100 | > 100 | > 100 | > 100 | > 100 | > 100 | > 100 | > 100 | > 100 | > 100 | > 100 | > 100 | > 100 | > 100 | > 100
C[N+]1(CCC[N+]2(C)CC3C4C=CC(CC4)C3C2)CCOCC1 (stereo not given) | > 100 | > 100 | > 100 | > 100 | > 100 | > 100 | > 100 | > 100 | > 100 | > 100 | > 100 | > 100 | > 100 | > 100 | > 100 | > 100 | > 100 | > 100 | > 100 | > 100
CC(C)(C)OC(=O)CN1CCN(CC(=O)N2CCN(C(=O)OCc3ccccc3)CC2)CCN(CC(=O)OC(C)(C)C)CCN(CC(=O)N2CCN(C(=O)OCc3ccccc3)CC2)CC1 | 7.42 | 3.51 | 2.64 | 6.55 | 19.1 | 0.525 | 16.4 | 5.67 | 7.94 | 14.9 | 22.8 | 2.87 | 25.8 | 16.8 | 13.8 | 6.85 | 14.6 | 4.75 | 1.75 | 7.59

From PubChem BioAssay (NCI)
